Source: patent US20020173640A1, “ADAM polynucleotides, polypeptides, and antibodies” (Human Genome Sciences, Inc., priority 1999, published 2002)

How the values were obtained:
[1] = tested on: protease inhibitor-resistant viruses; conditions: cited from earlier work
[2] = tested on: human metastatic melanoma (M24 cells); conditions: cited from earlier work
M24 cells = conditions: murine metastasis model; cited from earlier work
[3] = tested on: lamivudine-resistant isolates; conditions: cited from earlier work
bovine casein = assay: Substrate specificity: casein; format: biochemical
Procedure: (§1) The following assay(s) are useful in determining the presence of protease activity. Gelatin and casein zymography are performed essentially as described (Heusen et al., Anal. Biochem., 102:196-202 (1980); Wilson et al., Journal of Urology, 149:653-658 (1993)). Samples are run on 10% polyacryamide/0.1% SDS gels containing 1% gelain orcasein, soaked in 2.5% triton at room temperature for 1 hour, and in 0.1M glycine, pH 8.3 at 37° C. 5 to 16 hours. After staining in amido black areas of proteolysis apear as clear areas agains the blue-black background. Trypsin (Sigma T8642) is used as a positive control.

[4] = tested on: alpha-2-macroglobulin (α2-M); assay: Complex formation between hADAM-19 and α2-M (Western blot, anti-Flag); format: binding, Bovine; conditions: 37° C. for 16 h; Western blot with anti-Flag Ab
Procedure: Complex Formation Between hADAM-19 and α2-M Human ADAM-19 transient transfected supernatant was concentrated by about 10-fold in a 0.4 ml Ultrafree MC filter unit (Low Binding Regenerated Cellulose membrane, MW cutoff 10 kDa) from Millipore. 40 μl of the concentrated sample were mixed with TBSZ buffer (50 mM Tris.HCl, 150 mM NaCl, 5 μM ZnCl2) with or without α2-M protein (Roche Molecular Biochemicals, final concentration, 1 unit/ml) in a total 50 μl reaction volume and incubated at 37° C. for 16 h. The samples were boiled in Lamini sample buffer and loaded on a 4-12% percent Tris-Giycine gel. In the case of purified hADAM-19 protein, one to 10 μl of purified protein were incubated with α2-M protein in TBSZ buffer in a total of 50 μl reaction volume and incubated at 37° C. for 16 h. Anti-Flag M2 antibody (Ab), at 1 μg/ml concentration (Sigma), was used as primary Ab. Peroxidase-labelled goat anti-mouse Ab from Amersham Pharmacia Biotech was used as secondary Ab at 1:2000 dilution.

[5] = tested on: rat tail tendon type I gelatin; assay: Substrate specificity: gelatin; format: biochemical
Procedure: as §1

[6] = tested on: alpha-2-macroglobulin (α2-M); assay: Cleavage of α2-M by hADAM-19; format: biochemical, Bovine; conditions: 37° C.; new bands of 105 kDa and 72 kDa; dose-dependent
Procedure: The time course of hydrolysis of α2-M by hADAM-19 was examined. Ten μl of purified hADAM-19 (50 μg/ml) were mixed with 23.8 μl α2-M (0.2 unit)ml) in 66.24 μl 1× assay buffer (50 mM HEPES, pH 7.5, 0.2 M NaCl, 10 mM CaCl2, 25 μM ZnCl2 and 0.05% Brij-35) and incubated at 37° C. for 1-5 days. Trypsin was used as a positive control. The molar ratios between α2-M and hADAM-19 or trypsin were from 1:1 to 5:1. The samples were collected and boiled in SDS-PAGE sample buffer containing 5% 2-mercaptoethanol for 5-min, then loaded onto an 8% SDS-polyacrylamide gel. After electrophoresis the proteins were visualized by silver staining method.

alpha-2 macroglobulin = assay: metal-dependant proteolysis of alpha-2 macroglobulin; format: biochemical; conditions: see Example 19

Q: With Cc1ccccc1CNC(=O)[C@H]1N(C(=O)[C@@H](O)[C@H](Cc2ccccc2)NC(=O)c2cccc(O)c2C)CSC1(C)C [AG-1776] as the molecule, how does the “in vitro activity against protease inhibitor-resistant viruses” value [1] read?
A: in vitro activity against protease inhibitor-resistant viruses

Q: For contortrostatin, which “inhibition of M24 cell adhesion to laminin” value [2] is on record?
A: not laminin

Q: And the “inhibition of M24 cell adhesion to type I collagen, vitronectin, and fibronection” value [2]?
A: inhibit

Q: What about the “inhibition of lung colonization of M24 cells” value (M24 cells) of the same molecule?
A: inhibits lung colonization

Q: With Nc1ccn([C@H]2CO[C@@H](CO)S2)c(=O)n1 [dOTC] as the molecule, how does the “activity against lamivudine-resistant isolates” value [3] read?
A: retains activity against a substantial proportion of lamivudine-resistant isolates

B1: hADAM-19: Flag-tagged hADAM-19 protein (residues 26-701 of SEQ ID NO: 9) purified from transfected 293T cells (protein, listed as Homo sapiens)
chain: REPGWTRGSEEGSPKLQHELIIPQWKTSESPVREKHPLKAELRVMAEGRELILDLEKNEQLFAPSYTETHYTSSGNPQTTTRKLEDHCFYHGTVRETELSSVTLSTCRGIRGLITVSSNLSYVIEPLPDSKGQHLIYRSEHLKPPPGNCGFEHSKPTTRDWALQFTQQTKKRPRRMKREDLNSMKYVELYLVADYLEFQKNRRDQDATKHKLIEIANYVDKFYRSLNIRIALVGLEVWTHGNMCEVSENPYSTLWSFLSWRRKLLAQKYHDNAQLITGMSFHGTTIGLAPLMAMCSVYQSGGVNMDHSENAIGVAATMAHEMGHNFGMTHDSADCCSASAADGGCIMAAATGHPFPKVFNGCNRRELDRYLQSGGGMCLSNMPDTRMLYGGRRCGNGYLEDGEECDCGEEEECNNPCCNASNCTLRPGAECAHGSCCHQCKLLAPGTLCREQARQCDLPEFCTGKSPHCPTNFYQMDGTPCEGGQAYCYNGMCLTYQEQCQQLWGPGARPAPDLCFEKVNVAGDTFGNCGKDMNGEHRKCNMRDAKCGKIQCQSSEARPLESNAVPIDTTIIMNGRQIQCRGTHVYRGPEEEGDMLDPGLVMTGTKCGYNHICFEGQCRNTSFFETEGCGKKCNGHGVCNNNQNCHCLPGWAPPFCNTPGHGGSIDSGPMPPESVG
modifications: Flag tag
Q: For B1, which “dissolution of bovine casein” value (bovine casein) is on record?
A: not dissolved

Q: And the “complex formation with α2-M” value [4]?
A: formed a complex of 170 kDa band with α2-M

Q: What about the “dissolution of rat tail tendon type I gelatin” value [5] of the same molecule?
A: not dissolved

Q: What about the “cleavage of α2-M” value [6] of the same molecule?
A: cleaved α2-M

B2: Gene NO: 1: human ADAM polypeptide encoded by cDNA clone HDPDH32, homologous to murine metalloproteinase-disintegrin meltrin beta (protein, listed as Homo sapiens)
chain: MPGGAGAARLCLLAFALQPLRPRAAREPGWTRGSEEGSPKLQHELIIPQWKTSESPVREKHPLKAELRVMAEGRELILDLEKNEQLFAPSYTETHYTSSGNPQTTTRKLEDHCFYHGTVRETELSSVTLSTCRGIRGLITVSSNLSYVIEPLPDSKGQHLIYRSEHLKPPPGNCGFEHSKPTTRDWALQFTQQTKKRPRRMKREDLNSMKYVELYLVADYLEFQKNRRDQDATKHKLIEIANYVDKFYRSLNIRIALVGLEVWTHGNMCEVSENPYSTLWSFLSWRRKLLAQKYHDNAQLITGMSFHGTTIGLAPLMAMCSVYQSGGVNMDHSENAIGVAATMAHEMGHNFGMTHDSADCCSASAADGGCIMAAATGHPFPKVFNGCNRRELDRYLQSGGGMCLSNMPDTRMLYGGRRCGNGYLEDGEECDCGEEEECNNPCCNASNCTLRPGAECAHGSCCHQCKLLAPGTLCREQARQCDLPEFCTGKSPHCPTNFYQMDGTPCEGGQAYCYNGMCLTYQEQCQQLWGPGARPAPDLCFEKVNVAGDTFGNCGKDMNGEHRKCNMRDAKCGKIQCQSSEARPLESNAVPIDTTIIMNGRQIQCRGTHVYRGPEEEGDMLDPGLVMTGTKCGYNHICFEGQCRNTSFFETEGCGKKCNGHGVCNNNQNCHCLPGWAPPFCNTPGHGGSIDSGPMPPESVGPVVAGVLVAILVLAVLMLMYYCCRQNNKLGQLKPSALPSKLRQQFSCPFRVSQNSGTGHANPTFKLQTPQGKRKVINTPEILRKPSQPPPRPPPDYLRGGSPPAPLPAHLSRAARNSPGPGSQIERTESSRRPPPSRPIPPAPNCIVSQDFSRPRPPQKALPANPVPGRRSLPRPGGASPLRPPGAGPQQSRPLAALAPKFPEYRSQRAGGMISSKI
Q: For B2, which “metal-dependant proteolysis of alpha-2 macroglobulin” value (alpha-2 macroglobulin) is on record?
A: displayed metal-dependant proteolysis of alpha-2 macroglobulin
